Reference: patent US20110269812A1, “NOVEL BENZYLIDENE-INDOLINONE AND THEIR MEDICAL AND DIAGNOSTIC USES” (Agency for Science, Technology and Research, priority 2008, published 2011)
Like-named read-outs stand apart in the source and are kept apart here.

Tests used:
NQO1 = experiment: Induction of NQO1 (QR) activity in Hepa1c1c7 cells
CYP1A1 = experiment: 7-ethoxyresorufin O-deethylase (EROD) assay, CYP1A1 induction in Hepa1c1c7 cells; format: cell-based, murine
Description: Hepa1c1c7 cells were plated at a density of 10000 cells per well in a 96-well plate and cultured for 24 h. A stock solution of test compound was prepared in DMSO and serially diluted with medium to give the desired concentration in the well. The final concentration of DMSO was 0.5% v/v. The cells were incubated with test compound for 48 h, after which the medium was removed, the well washed with 200 μl of 1×phosphate-buffered saline solution (PBS) and then incubated with 5 μM 7-ethoxyresorufin and 2 mM salicylamide in 200 μl of medium at 37° C., 40 min. Readings were taken at λexcitation of 530 nm and λemission of 590 nm on a fluorometer. Fluorescence (if any) of the test compound was determined at the same wavelengths to take into account its contribution to the observed readings. Readings of empty wells (no cells, “blank”) and wells with Hepa1c1c7 cells in medium containing 0.5% DMSO but without test compound (“control”) were also determined. TCDD, a strong inducer of CYP1A1 activity, as well as BNF and sulforaphane were used as controls.
CYP1A1 induction activity was given by the expression:
Degree of induction=FCells+test compound−FBlank/FControl−FBlank
The EROD assay was used for this purpose (Burke, M. D.; Mayer, R. T., Drug Metab Dispos 1974, 2, 583). EROD activity describes the rate at which CYP1A1 caused the O-deethylation of 7-ethoxyresorufin to resorufm. […] This ratio was determined for compounds at concentrations that were approximately 4 times their CD values. A fixed concentration was not used here because it would be difficult to select this concentration in view of the large variation in NQO1 induction activities. The quotient of NQO1 and CYP1A1 induction ratios (ratio determined at the same concentration) was also obtained for each compound. Values >1 would imply greater induction of NQO1 relative to CYP1A1.

THLE2 = experiment: Cell viability assay (Cell Titer-Glo), THLE2 normal hepatocyte cell line; format: cell-based; conditions: Homo sapiens, read-out: IC50 THLE2
Description: (§1) Cells were plated at 5000-7000 cells/per well and incubated for 24 h before treatment. […] Cell Titer-Glo (Promega, Madison, Wis.) assay was performed according to manufacturer's instruction with luminescence detected on SpectraMax M5 (Molecular Devices, Sunnyvale, Calif.). Data was expressed as percentage of viability vs. vehicle-treated controls.
(§2) The anti-cancer potential of these compounds against HCC were tested using a phenotypic assay where compounds were screened over 100-fold concentration range (0.1 to 10 μM) using two representative liver cancer cell lines, HepG2 and HuH7. Additionally, THLE2 was employed as normal hepatocyte cell line to differentiate anti-cancer potential from non-specific cytotoxicities.
(§3) Cell viability assay shown in FIG. 2 was analyzed by Prism5 for the determination of respective IC50 values.

HuH7 = experiment: cells; format: cell-based, human; conditions: for viability at 10 µM / IC50: Homo sapiens; for viability at 10 µM: vs vehicle-treated controls, read-out: Percentage viability HuH7; for IC50: read-out: IC50 HuH7; for SR(HuH7/THLE2) safety ratio: percentage viability at 10 μM normalized with THLE2
Description: as §1, §2, §3
(§4) Cell viability was determined as described previous in Table 7. Percentage viability at 10 μM treatments was determined and safety ratios were calculated by normalizing survival in HCC cell lines to THLE2.

HepG2 = experiment: cells; format: cell-based, human; conditions: for viability at 10 µM / IC50: Homo sapiens; for viability at 10 µM: vs vehicle-treated controls, read-out: Percentage viability HepG2; for IC50: read-out: IC50 HepG2; for SR(HepG2/THLE2) safety ratio: percentage viability at 10 μM normalized with THLE2
Description: as §1, §2, §3, §4

Hepa1c1c7 cells = experiment: MTT growth inhibition / cytotoxicity on Hepa1c1c7 cells; format: cell-based, murine; conditions: Mus musculus, Hepa-1c1c7, 48 h, highest concentration tested 25 μM
Description: The antiproliferative activity of the compounds according to the invention was determined by the MTT assay on the following cell lines: MCF7 (human breast cancer cell line), HCT116 (human colon cancer cell line), and CCL186 (normal human diploid embryonic lung fibroblast). […] MCF7 and CCL186 cells were cultured in Eagle's Minimum Essential Medium (EMEM) with 1 mM sodium pyruvate, 1.5 g/L sodium bicarbonate, 2 mM L-glutamine supplemented with 10% FBS and 0.01% antibiotics. HCT116 cells were cultured in McCoy's 5A Medium with 2.2 g/L sodium bicarbonate supplemented with […] and 0.01% antibiotics. Cells were plated at the following densities: 10000 cells/well (MCF7), 4000 cells/well (HCT116), 5000 cells/well (CCL186). They were grown for 24 h in a 96-well plate, with 100 μl of corresponding medium in each well. The test compounds were prepared in DMSO and diluted to a series of concentrations with medium. Not more than 1% DMSO (final concentration) was present in each well. The test compounds were incubated with the cells for 72 h, after which 100 μl MTT solution (0.5 mg/ml in 1× PBS) was added for 3 h and the cells lysed to release the formazan product. The latter was dissolved in DMSO (150 μl) and absorbance determined within 30 min at 590 nm on a microtitre plate reader. Cell survival was given by the expression:
Cell survival (%)=[(Acells+test compound−Ablank)/(Auntreated cells−Ablank)]×100
where A is the absorbance of formazan measured at 590 nm in the test (Acells+test compound), control (Auntreated cells) or blank (Ablank) wells. Each concentration of test compound was evaluated on 3 separate occasions. […] The MTT assay was also carried out on Hepa1c1c7 cells for the purpose of determining cytotoxicity of test compounds. The same procedure was adopted except that the incubation period of compound with cells was 48 h, instead of 72 h.

[1] = 1 μM, read off from plot of degree of induction versus concentration

| SMILES | viability at 10 µM (HuH7; Huh-7, 72 h) [%] | viability at 10 µM (HepG2; HepG2, 72 h) [%] | IC50 (Hepa1c1c7 cells) [µM] | melting point [°C] | IC50 (THLE2; THLE-2, 72 h) [µM] | IC50 (HuH7; Huh-7, 72 h) [µM] | SR(HuH7/THLE2) safety ratio (HuH7) | IC50 (HepG2; HepG2, 72 h) [µM] | SR(HepG2/THLE2) safety ratio (HepG2) | NQO1 induction ratio (NQO1; [1]) | CYP1A1 induction ratio (CYP1A1; 1 μM, 48 h) | other results |
| --- | --- | --- | --- | --- | --- | --- | --- | --- | --- | --- | --- | --- |
| O=c1cc(-c2ccccc2)oc2ccc3ccccc3c12 [BNF, β-naphthoflavone, reference compound] | – | – | – | – | – | – | – | – | – | – | – | NQO1 induction ratio (NQO1; 0.01 μM): 1.83; NQO1/CYP1A1 Quotient (NQO1; both ratios at 0.01 μM): 1.62; CYP1A1 induction ratio (CYP1A1; 0.01 μM, read off from a curve): 1.13 |
| Clc1cc2c(cc1Cl)Oc1cc(Cl)c(Cl)cc1O2 [TCDD, 2,3,7,8-Tetrachlorodibenzo-p-dioxin, reference compound] | – | – | – | – | – | – | – | – | – | – | – | CYP1A1 induction ratio (EROD assay) (CYP1A1; 1 nM): 2.99 |
| CCN(CC)CCNC(=O)c1c(C)[nH]c(/C=C2\C(=O)Nc3ccc(F)cc32)c1C [Sunitinib, reference compound] | 3.4 ± 0.2 | 1.8 ± 0.3 | – | – | – | – | – | – | – | – | – | IC50 (THLE2; THLE-2, viability (intracellular ATP, Cell Titer-Glo), 72 h, 0.1 to 10 μM, normal liver cell line): 4.5 µM; IC50 (HuH7; Huh-7, viability (intracellular ATP, Cell Titer-Glo), 72 h, 0.1 to 10 μM): 4.7 µM; IC50 (HepG2; HepG2, viability (intracellular ATP, Cell Titer-Glo), 72 h, 0.1 to 10 μM): 4.5 µM |
| COc1cccc(/C=C2/C(=O)Nc3cc(Cl)ccc32)c1 [Compound 41, (E)-6-Chloro-3-(3-methoxybenzylidene)indolin-2-one] | 102 ± 6.9 | 46.4 ± 2.5 | > 25 | 198 to 200 | > 10 | > 10 | 0.87 | 8.5 | 1.90 | – | – | NQO1 induction ratio (NQO1; 0.1 μM, read off from plot): 2.56; NQO1/CYP1A1 Quotient (NQO1; both ratios at 0.1 μM): 1.70; CYP1A1 induction ratio (CYP1A1; 0.1 μM, 48 h): 1.51 ± 0.13 |
| COc1ccc(/C=C2/C(=O)Nc3cc(F)ccc32)cc1O [Compound 43, (E)-6-Fluoro-3-(3-hydroxy-4-methoxybenzylidene)indolin-2-one] | 84.1 ± 7.5 | 28.3 ± 6.7 | 15.6 | 225 to 227 | > 10 | > 10 | 1.22 | 1.2 | 3.63 | – | – | NQO1 induction ratio (NQO1; 0.5 μM, read off from plot): 4.10; NQO1/CYP1A1 Quotient (NQO1; both ratios at 0.5 μM): 2.00; CYP1A1 induction ratio (CYP1A1; 0.5 μM, 48 h): 2.05 ± 0.07 |
| COc1cccc(/C=C2/C(=O)Nc3ccc(Cl)cc32)c1 [Compound 40, (E)-5-Chloro-3-(3-methoxybenzylidene)indolin-2-one] | 57.5 ± 6.6 | 46.1 ± 2.2 | 17.5 | 212 to 214 | > 10 | > 10 | 1.55 | 9.2 | 1.93 | – | – | NQO1 induction ratio (NQO1; 2.5 μM, read off from plot): 4.34; NQO1/CYP1A1 Quotient (NQO1; both ratios at 2.5 μM): 3.29; CYP1A1 induction ratio (CYP1A1; 2.5 μM, 48 h): 1.32 ± 0.08 |
| C[S+]([O-])CCCCN=C=S (centres unmarked) [sulforaphane, reference compound] | – | – | – | – | – | – | – | – | – | 3.89 | 0.924 | – |
| COc1ccc(/C=C2/C(=O)Nc3cc(Cl)ccc32)cc1O [Compound 44, (E)-6-Chloro-3-(3-hydroxy-4-methoxybenzylidene)indolin-2-one] | 63 ± 4 | 15 ± 1.3 | > 25 | 220 to 223 | > 10 | > 10 | 1.36 | 1 | 5.72 | 5.09 | 2.33 ± 0.13 | NQO1/CYP1A1 Quotient (NQO1; both ratios at 1 μM): 2.18 |
| COc1cccc(/C=C2/C(=O)Nc3cc(F)ccc32)c1 [Compound 39, (E)-6-Fluoro-3-(3-methoxybenzylidene)indolin-2-one] | 65.8 ± 1.1 | 40 ± 4.2 | 9.8 | 169 to 170 | > 10 | > 10 | 1.19 | 7.6 | 1.95 | 3.21 | 1.25 ± 0.06 | NQO1/CYP1A1 Quotient (NQO1; both ratios at 1 μM): 2.57 |
